Reference: US20260083865A1, “PROSTATE SPECIFIC MEMBRANE ANTIGEN (PSMA) LIGANDS AND USE THEREOF” (priority 2022, published 2026)
Where two headings read alike, the source gives them in different places. Numbered stars: 1 amine (or outer) side, 2 acyl side, 3 side chain; on linkers, the order of the positions; unused ones are H or OH. Bridge positions count the residues as written; N and C are the ends. Square brackets hold non-standard residues; d marks the D form. Peptide text beside a SMILES is read from it. * marks the point of attachment. ξ: configuration not given here. DOTA = O=C(O)CN1CCN(CC(=O)O)CCN(CC(=O)*)CCN(CC(=O)O)CC1; Phe(3-Cl) = N[C@@H](Cc1cccc(Cl)c1)C(=O)O; Phe(4-Cl) = N[C@@H](Cc1ccc(Cl)cc1)C(=O)O; X1 = O=C(CC1CCN([*:1])CC1)[*:2]; Cit = NC(=O)NCCC[C@H](N)C(=O)O; Tle = CC(C)(C)[C@H](N)C(=O)O; Api = NC1(C(=O)O)CCNCC1; ξD = NC(CC(=O)O)C(=O)O; Aib = CC(C)(N)C(=O)O; CO = O=C([*:1])[*:2]; βAla = NCCC(=O)O; NHBu = CCCCN*

Tests used:
[1] = target: T1, Fc-fusion protein of human PSMA (hPSMA-Fc) (Homo sapiens, UniProt Q04609); assay: Surface plasmon resonance assay (Biacore T200, single cycle kinetic); format: binding; conditions: hPSMA-Fc, 25° C., read-out: pKD CAT (converted)
T1 construct: purchased Acro Biosystems PSA-H5264
T1 sequence (Q04609 44-750 limits assumed): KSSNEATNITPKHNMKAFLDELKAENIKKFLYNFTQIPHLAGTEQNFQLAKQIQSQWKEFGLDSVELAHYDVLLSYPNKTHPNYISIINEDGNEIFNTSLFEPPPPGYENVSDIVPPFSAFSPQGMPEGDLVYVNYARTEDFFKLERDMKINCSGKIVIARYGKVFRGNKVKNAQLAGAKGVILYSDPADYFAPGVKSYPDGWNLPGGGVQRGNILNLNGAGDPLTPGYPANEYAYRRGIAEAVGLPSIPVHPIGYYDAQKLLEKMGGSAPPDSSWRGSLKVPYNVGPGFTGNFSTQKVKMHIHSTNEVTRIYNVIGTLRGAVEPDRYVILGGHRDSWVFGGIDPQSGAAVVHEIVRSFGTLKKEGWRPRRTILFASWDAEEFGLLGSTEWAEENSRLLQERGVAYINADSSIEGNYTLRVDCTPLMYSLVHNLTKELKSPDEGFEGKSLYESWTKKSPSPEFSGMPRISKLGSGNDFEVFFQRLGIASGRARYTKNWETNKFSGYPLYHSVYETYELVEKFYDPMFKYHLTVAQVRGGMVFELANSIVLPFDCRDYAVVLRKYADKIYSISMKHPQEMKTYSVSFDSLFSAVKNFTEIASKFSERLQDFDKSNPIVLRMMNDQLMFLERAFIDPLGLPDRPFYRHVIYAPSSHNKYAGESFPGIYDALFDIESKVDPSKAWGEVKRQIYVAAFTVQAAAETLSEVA
How it was run: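 KD, expressed as pKD, came from 1:1 Langmuir fits of reference- and buffer-blank-subtracted SPR data. The runs were single-cycle kinetics at 25° C in HBST/0.1% DMSO over human PSMA-Fc, captured to ~1000 RU on a peptide-coated CM5 surface and regenerated with 10 mM glycine pH 1.5.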

[2] = target: T2, PSMA-expressing C4-2 cells (Homo sapiens, UniProt Q04609); assay: FACS binding assay (competition with 50 nM PSM-0183); conditions: read-out: pIC50 [C4-2] CAT (converted)
T2 construct: PSMA-expressing C4-2 cells (ATCC, Cat. No. CRL-3314) were cultured in RPMI-1640; host or cells: C4-2 cells
T2 sequence (Q04609 whole entry): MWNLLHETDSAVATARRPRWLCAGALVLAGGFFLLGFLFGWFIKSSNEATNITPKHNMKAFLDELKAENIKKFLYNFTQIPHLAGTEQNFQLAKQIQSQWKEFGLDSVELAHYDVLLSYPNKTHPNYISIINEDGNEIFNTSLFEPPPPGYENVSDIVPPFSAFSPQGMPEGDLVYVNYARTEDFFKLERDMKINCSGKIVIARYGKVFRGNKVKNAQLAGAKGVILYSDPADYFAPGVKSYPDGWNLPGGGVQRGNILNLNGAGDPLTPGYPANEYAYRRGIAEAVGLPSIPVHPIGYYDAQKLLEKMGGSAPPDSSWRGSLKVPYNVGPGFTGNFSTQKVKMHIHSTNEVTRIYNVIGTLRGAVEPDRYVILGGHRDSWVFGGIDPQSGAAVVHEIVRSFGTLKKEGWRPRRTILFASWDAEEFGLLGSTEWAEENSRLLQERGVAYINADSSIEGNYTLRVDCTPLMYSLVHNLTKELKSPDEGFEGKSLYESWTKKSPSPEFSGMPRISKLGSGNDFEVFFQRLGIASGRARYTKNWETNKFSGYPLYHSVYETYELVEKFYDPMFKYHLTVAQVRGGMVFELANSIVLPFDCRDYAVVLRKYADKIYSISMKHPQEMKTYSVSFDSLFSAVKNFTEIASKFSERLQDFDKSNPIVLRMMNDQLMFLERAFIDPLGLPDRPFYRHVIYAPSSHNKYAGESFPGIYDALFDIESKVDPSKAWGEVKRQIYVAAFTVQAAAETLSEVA
How it was run: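 Competition format: fluorescent tracer PSM-0183 (50 nM) displaced from PSMA on C4-2 cells by a test compound titration over 1 h at 4 °C. Bound tracer was quantified as flow-cytometric AF488 median fluorescence after washing. Four-parameter logistic fits of MFI data gave IC50 and pIC50.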

[3] = SPR, single cycle kinetic, category
[4] = FACS binding, C4-2 cells, competition with 50 nM PSM-0183, category
[5] = pKD category for PSMA SPR activity assay
[6] = pIC50 category of FACS binding, C4-2 cells

SMILES | Kd [1, 5] | IC50 [2, 6] | further results
C[C@@H](O)[C@H](NC(=O)CN1CCN(CC(=O)O)CCN(CC(=O)O)CCN(CC(=O)O)CC1)C(=O)NC(C)(C)C(=O)N[C@@H](Cc1ccc(Cl)cc1)C(=O)N[C@H]1CSSC[C@@H](C(=O)N[C@H](C(=O)NCCC(N)=O)C(C)(C)C)NC(=O)[C@H](CC(N)=O)NC(=O)C(C)(C)NC(=O)[C@H](CCCNC(=N)N)NC(=O)[C@H](CCCCN)NC1=O [PSM-0216, DOTA-Thr-Aib-Pcf-[Cys-Lys-Arg-Aib-Asn-Cys]-Tle-Bal-NH2] ({DOTA}-T[Aib][Phe(4-Cl)]CKR[Aib]NC[Tle][βAla]-NH2; disulfide 4-9) |  |  | Kd [1, 3]: < 12.6 nM; IC50 [2, 4]: < 200 nM
CSCC[C@H](N)C(=O)N[C@H](C(=O)N[C@@H](C)C(=O)N[C@@H](Cc1ccccc1)C(=O)N[C@H]1CSSC[C@@H](C(=O)N[C@@H](CC(C)C)C(=O)N[C@H](C(=O)NC(CC(=O)O)C(=O)NCC(=O)N[C@@H](CO)C(N)=O)[C@@H](C)O)NC(=O)[C@H](CC(N)=O)NC(=O)[C@H](C)NC(=O)[C@H](CCCNC(=N)N)NC(=O)[C@H](CCCCN)NC1=O)[C@@H](C)O (stereo partly drawn) [PSM-0498, H-Met-Thr-Ala-Phe-[Cys-Lys-Arg-Ala-Asn-Cys]-Lou-Thr-Asp-Gly-Ser-NH2] (H-MTAFCKRANCLT[ξD]GS-NH2; disulfide 5-10) | < 12.6 nM | < 200 nM | 
CCCCNC(=O)N[C@H](C(=O)NC(C)(C)C(=O)N[C@@H](Cc1cccc(Cl)c1)C(=O)N[C@H]1CSSC[C@@H](C(=O)N[C@H](C(=O)N[C@H](C(=O)N2CCC(CC(=O)N[C@H](CCCCNC(=O)CN3CCN(CC(=O)O)CCN(CC(=O)O)CCN(CC(=O)O)CC3)C(N)=O)CC2)[C@@H](C)O)C(C)(C)C)NC(=O)[C@H](CC(N)=O)NC(=O)C(C)(C)NC(=O)[C@H](CCCNC(N)=O)NC(=O)[C@H](CCCCN)NC1=O)[C@@H](C)O [PSM-0207, nBuCAyl-Thr-Aib-Mcf-[Cys-Lys-Cit-Aib-Asn-Cys]-Tle-Thr-Cmp-lys(DOTA)-NH2] ({NHBu-CO}-T[Aib][Phe(3-Cl)]CK[Cit][Aib]NC[Tle]T[X1][dK](DOTA)-NH2; disulfide 4-9) |  |  | Kd [1, 3]: 12.6 to 126 nM; IC50 [2, 4]: < 200 nM
CC(=O)N[C@H](C(=O)NC(C)(C)C(=O)N[C@@H](Cc1ccccc1)C(=O)N[C@H]1CSSC[C@@H](C(=O)N[C@H](C(=O)N[C@H](C(N)=O)[C@@H](C)O)C(C)(C)C)NC(=O)[C@H](CC(N)=O)NC(=O)C2(CCN(C(=O)CN3CCN(CC(=O)O)CCN(CC(=O)O)CCN(CC(=O)O)CC3)CC2)NC(=O)[C@H](CCCNC(=N)N)NC(=O)[C@H](CCCCN)NC1=O)[C@@H](C)O [PSM-0321, Ac-Thr-Aib-Phe-[Cys-Lys-Arg-Apc (DOTA)-Asn-Cys]-Tle-Thr-NH2] (Ac-T[Aib]FCKR[Api](DOTA)NC[Tle]T-NH2; disulfide 4-9) |  |  | Kd ([1]; PSMA SPR assay, pKD category): < 12.6 nM; IC50 ([2]; FACS binding, PSMA-expressing C4-2 cells, pIC50 category): < 200 nM
CC(=O)N[C@H](C(=O)NC(C)(C)C(=O)N[C@@H](Cc1ccccc1)C(=O)N[C@H]1CSSC[C@@H](C(=O)N[C@H](C(=O)N[C@@H](Cc2c[nH]c3ccccc23)C(N)=O)C(C)(C)C)NC(=O)[C@H](CC(N)=O)NC(=O)C(C)(C)NC(=O)[C@H](CCCNC(=N)N)NC(=O)[C@H](CCCCN)NC1=O)[C@@H](C)O [PSM-0376, Ac-Thr-Aib-Phe-[Cys-Lys-Arg-Aib-Asn-Cys]-Tle-Trp-NH2] (Ac-T[Aib]FCKR[Aib]NC[Tle]W-NH2; disulfide 4-9) | < 12.6 nM | < 200 nM | 

More lines, main results first:

Kd [1, 5] | IC50 [2, 6] | SMILES | further results
< 12.6 nM | 200 to 1260 nM | CC(=O)N[C@H](C(=O)NC(C)(C)C(=O)N[C@@H](Cc1ccccc1)C(=O)N[C@H]1CSSC[C@@H](C(=O)N[C@H](C(=O)N[C@H](C(=O)N[C@@H](CC(=O)O)C(N)=O)[C@@H](C)O)C(C)(C)C)NC(=O)[C@H](CC(N)=O)NC(=O)[C@H](C)NC(=O)[C@H](CCCNC(=N)N)NC(=O)[C@@H](CCCCN)NC1=O)[C@@H](C)O [PSM-0535, Ac-Thr-Aib-Phe-[Cys-lys-Arg-Ala-Asn-Cys]-Tle-Thr-Asp-NH2] (Ac-T[Aib]FC[dK]RANC[Tle]TD-NH2; disulfide 4-9) | 
> 501 nM | > 3160 nM | CCCC[C@H](NC(=O)[C@@H]1CSSC[C@H](NC(=O)[C@H](Cc2ccccc2)NC(=O)[C@H](C)NC(=O)[C@@H](NC(C)=O)[C@@H](C)O)C(=O)N[C@@H](CCCCN)C(=O)N[C@@H](CCCNC(=N)N)C(=O)N[C@@H](C)C(=O)N[C@@H](CC(N)=O)C(=O)N1)C(=O)N[C@H](C(=O)N[C@H](CC(=O)O)C(N)=O)[C@@H](C)O (single isomer, unassigned) [PSM-0436, Ac-Thr-Ala-phe-[Cys-Lys-Arg-Ala-Asn-Cys]-Nle-Thr-Asp-NH2] | 
